Read-outs that look alike come from different tables or passages of the source.

Series [1] is described as follows: Tissue distribution-based herb-drug interaction study in rats (CIP i.v., PCE i.g.). The format is in vivo, Sprague-Dawley rats.
For series [2], the target named is T1, hOAT1 (Homo sapiens, UniProt Q4U2R8).
T1 construct: host or cells: MDCK
T1 sequence (Q4U2R8 1-563): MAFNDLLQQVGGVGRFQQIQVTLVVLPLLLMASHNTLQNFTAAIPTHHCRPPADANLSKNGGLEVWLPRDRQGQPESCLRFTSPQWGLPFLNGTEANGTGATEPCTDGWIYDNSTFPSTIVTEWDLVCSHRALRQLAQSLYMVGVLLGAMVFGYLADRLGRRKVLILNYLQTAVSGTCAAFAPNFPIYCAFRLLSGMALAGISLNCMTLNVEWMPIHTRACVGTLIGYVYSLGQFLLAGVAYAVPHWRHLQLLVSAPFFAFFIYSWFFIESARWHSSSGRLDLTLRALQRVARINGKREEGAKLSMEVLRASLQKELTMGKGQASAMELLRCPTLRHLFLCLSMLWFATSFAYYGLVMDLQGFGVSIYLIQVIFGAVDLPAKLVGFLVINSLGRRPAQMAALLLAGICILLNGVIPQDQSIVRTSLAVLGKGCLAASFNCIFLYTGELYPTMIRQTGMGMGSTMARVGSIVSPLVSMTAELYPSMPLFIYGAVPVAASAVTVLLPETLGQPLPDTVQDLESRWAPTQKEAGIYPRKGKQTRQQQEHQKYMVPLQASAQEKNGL
Description: Inhibition of hOAT1-mediated uptake of 14C-PAH in hOAT1-MDCK cells. The format is cell-based.
Description: Stably expressing cell lines of hOAT1-MDCK, hOAT3-MDCK, hOCT2-S2, hMDR1-MDCK, hBCRP-MDCK, and their mock cells were obtained from Japan Fuji Biomedical Co., Ltd. The cells were maintained in DMEM (Sigma) supplemented with 10% FCS, 1% non-essential amino acids (Sigma), and 2% L-glutamine. The medium for the Transwell® plates (Corning Costar, Cambridge, MA, United States) was supplemented with 0.1% gentamicin. Membrane filters were placed in a 12 mm well with 1.5 and 0.5 ml of culture medium in the basolateral and apical compartments, respectively. Cells were cultured at 37°C in an atmosphere of 5% CO2.
Briefly, the hOAT1-MDCK, hOAT3-MDCK, and hOCT2-S2 cells were trypsinized and suspended in the culture medium to provide a density of 1.5 × 10^5 cells/ml. […] After cultivation for 7 days, cells were washed twice and equilibrated for 30 min at 37°C with the pre-warmed HBSS buffer. […] The content of DMSO was below 1% and constant in all inhibition experiments. All experiments were performed in triplicate. The cell lysate and 3.0 ml of aquasol-2 scintillation fluid were put into a scintillation flask. […] IC50 values were determined by employing GraphPad Prism 9.

Series [3] relates to Caco-2 cells. In words: Bidirectional transport of ciprofloxacin in Caco-2 cells. Format: in vitro ADME. Conditions: GA 50 μM, PCA 50 μM, PCE 100 mg/ml, p < 0.05. Background: Caco-2 monolayers are a common model of the intestinal barrier.
Description: The Caco-2 cell lines were obtained from the National Collection of Authenticated Cell Cultures (NCACC, Shanghai, China). The bi-directional transport assay was performed on 12-mm Transwell Permeable Supports with 0.4 mm-pore polycarbonate membrane insert and 1.12 cm^2 growth areas. […] The cells were seeded at a density of 3×10^5 cells/well, incubated at 37°C and 5% CO2, and cultured for 21 days with replacement of cell culture medium supplemented with 1% penicillin-streptomycin every second day. Membrane filters were placed in a 12 mm well with 1.5 and 0.5 ml of culture medium in the basolateral and apical compartments, respectively. TEER was measured as an indication of an intact monolayer using a Millicell ERS voltohmmeter (Millipore, Merck). […] Aliquots of 50 μl were collected from the acceptor compartment at 0.5 h. The apparent permeability coefficient (P app) was calculated using the following formula: P app = (dC/dt) × V r/(A × C 0), where dC/dt is the alteration in concentration over time, V r is the volume of the receiver compartment, A is the area of the cell monolayer, and C 0 is the initial concentration in the donor compartment. The permeation of drug from the apical (A) to the basolateral (B) side of the cells (P app,A-B) is compared with the permeation in the opposite direction (P app,B-A).
In series [4] the test system is MDR1 mRNA. Description: MDR1 mRNA expression in Caco-2 cells (qRT-PCR). The format is cell-based. The note with it: 48 h pretreatment, bosentan 20 μM, GA 50 μM, PCA 50 μM, PCE 100 mg/ml. Background: Quantitative PCR measures a nucleic acid by following its amplification.
Description: After the incubation period, cells were harvested from the Transwell inserts for RNA extraction. […] Real-time quantitative PCR (qRT-PCR) was performed on an ABI Prism 7900HT Sequence Detection System (Applied Biosystems, Foster City, CA, United States) for the analysis of MDR1 and BCRP genes. Primers of housekeeping gene β-actin was used as internal controls. […] The relative gene expression levels were determined using the comparative CT method (ΔΔCT method). The cut-off CT was set at 35 cycles for all analyses. An arbitrary classification system was assigned to the data, designating relative expression levels >2 as high mRNA expression, levels between 2 and 1 as moderate mRNA expression, levels between 1 and 0.1 as low mRNA expression and levels <0.1 as unexpressed.
Series [5] relates to Staphylococcus aureus and Escherichia coli. Also on record: method as in Fifere et al., 2022. The note with it: in vitro, especially that of levofloxacin; ref Fifere et al., 2022; cited from earlier work.
The nature of series [6]: clinical. The note with it: male, human; for Cmax: C max; for Vd/F: V z/F; for k el: k e.
[7] abbreviates: plasma PK-marker, human subjects, oral single dose of PCE (8 g) alone.
[8] abbreviates: plasma, oral, plasma PK-marker, human subjects, multiple doses of PCE (8 g, TID, seven days) + CIP 0.5 g.
Where [9] appears, read: plasma, oral, plasma PK-marker, human subjects, single dose of PCE (8 g) + CIP 0.5 g.
The mark [10] stands for this setting: plasma, po, plasma PK-marker, human subjects, oral single dose of PCE (8 g) alone.

On to `O=C(O)c1ccc(O)c(O)c1` [PCA, protocatechuic acid], for which the figures for the “order of both AUC 0-t and C max in tissues” value in series [1] (CIP + PCE group) and in series [1] (PCE group) were “prostate > SVG > kidney > testis > plasma” and “SVG > kidney > prostate > testis > spleen”, respectively. Further, in series [1] (each tissue, p > 0.05), the “change of K p by CIP” value is “did not significantly alter”. Further, the “change of AUC 0-t by CIP” value in series [1] (kidney, p < 0.05) is on record as “decreased”. Moreover, the “change of C max by CIP” value in series [1] (prostate, p < 0.05) was “significantly increased”. In series [2] (hOAT1-MDCK cells, 14C-PAH 5 µM), this molecule yielded an IC50 of 29.7 µM. Moreover, the “change of net efflux ratio of CIP after co-treatment” value in series [3] was “significant improvement”. Besides, the “increase of MDR1 (P-gp) mRNA expression” value in series [4] is 3.56 fold. Besides, the CL/F runs as follows: (plasma PK-marker, human subjects, multiple doses of PCE (8 g, TID, seven days) + CIP 0.5 g) 5.78 ± 1.57 L/h; under setting [7], 5.64 ± 1.45 L/h; (plasma PK-marker, human subjects, single dose of PCE (8 g) + CIP 0.5 g) 4.26 ± 0.91 L/h. The molecule also yielded a C max under setting [7] of 6.07 ± 1.48 ng/mL. In addition, the “increase of the antibacterial activity” value in series [5] is “up to 50%”. The AUC(0-t) came to 3.03 ± 0.9 ng·h/mL in series [6] (setting [8]), 3.68 ± 1.15 ng·h/mL in series [6] (setting [9]) and 2.84 ± 0.72 ng·h/mL in series [6] (setting [10]). Besides, the AUC(0-inf) worked out at 3.35 ± 0.99 ng·h/mL in series [6] (setting [8]), 4.4 ± 0.93 ng·h/mL in series [6] (setting [9]) and 3.39 ± 0.94 ng·h/mL in series [6] (setting [10]). For the same molecule, the Cmax in series [6] (setting [8]) came out at 5.88 ± 1.66 ng/mL; in series [6] (setting [9]) it was 6.44 ± 2.57 ng/mL. Besides, the Vd/F in series [6] (setting [8]) turned out to be 150 ± 54.4 L; in series [6] (setting [9]), 149 ± 65.6 L; in series [6] (setting [10]), 148 ± 23.9 L. The k el in series [6] (setting [8]) is 0.000697 s⁻¹; in series [6] (setting [9]), 0.000569 s⁻¹; in series [6] (setting [10]) it was 0.000656 s⁻¹. Moreover, the half-life in series [6] (plasma, oral, t 1/2, plasma PK-marker, human subjects, multiple doses of PCE (8 g, TID, seven days) + CIP 0.5 g) was 18.6 ± 8.4 min; in series [6] (plasma, oral, t 1/2, plasma PK-marker, human subjects, single dose of PCE (8 g) + CIP 0.5 g) it was 25.2 ± 11.4 min; in series [6] (plasma, po, t 1/2, plasma PK-marker, human subjects, oral single dose of PCE (8 g) alone) it was 19.2 ± 6.6 min. Besides, the Tmax in series [6] (plasma, po) is 19.8 min.

Regarding `O=C(O)c1cc(O)c(O)c(O)c1` [GA, Gallic acid], in series [1] (CIP + PCE group (PK-marker)), the “order of C max in tissues” value was “SVG > prostate > kidney > lung > plasma”. The “order of C max in tissues” value in series [1] (PCE group) is given as “SVG > prostate > kidney > plasma > testis”. The “order of AUC 0-t in tissues” value in series [1] (intragastric PCE in the absence and presence of CIP) is given as “SVG > prostate > kidney > testis > plasma”. In addition, in series [1] (kidney and heart, p < 0.05), the “change of C max by CIP” value is listed as “decreased”. The IC50 in series [2] came out at 8.01 µM. The molecule further displayed a CL/F (human, in vivo, po) of 2.10 ± 0.64 L/h. In series [6] (in vivo, po), the Tmax is 52.8 min, the AUC(0-t) stood at 242 ± 70 ng·h/mL, the AUC(0-inf) was found to be 248 ± 67 ng·h/mL and the peak level (Cmax) was 130 ± 32.7 ng/mL. This molecule also yielded a Vd/F in series [6] (in vivo, po) of 322 ± 295 L. Besides, in series [6] (in vivo, po, t 1/2), the half-life was 98.4 ± 55.2 min. For the same molecule, the k el in series [6] (setting [8]) was 0.000117 s⁻¹. In series [6] (setting [9]), the k el is 0.000131 s⁻¹. Further, the k el in series [6] (setting [10]) was 0.000142 s⁻¹.

By IC50 is commonly meant the concentration needed to halve the response being measured. High values mean lower potency, low ones higher potency. One may read the CL/F as the apparent clearance, not corrected for the fraction that reaches the circulation. The AUC(0-t) is the area under the concentration-time curve up to a stated or last time point. By AUC(0-inf) is commonly meant the area under the concentration-time curve extrapolated to infinity. By Cmax is commonly meant the highest concentration seen after dosing. One may read the Vd/F as the volume of distribution divided by bioavailability. The term half-life denotes how long it takes for the measured level to halve. The term Tmax denotes the time at which the peak concentration occurs.
